Like-named read-outs stand apart in the source and are kept apart here.
Tested on: HCT116 MTAP-/- cells
Experiment: Cell growth inhibition test (SRB staining)
Assay type: cell-based
Conditions: HCT116 MTAP-/- cells, 0.64 nM - 2,000 nM, 6 dose points, 6 days, SRB staining, absorbance at 540 nm, read-out: HCT116 MTAP-/- cell growth inhibition (GI50)
Method: The synthetic compounds above were tested for cell growth inhibition against HCT116 cells.
HCT116 MTAP-/- (homozygous knockout of MTAP gene in HCT116 MTAP-WT cells by CRISPER/Cas9 method) cells were maintained in RPMI1640 medium containing 10 % FBS and 1 % penicillin-streptomycin. Approximately 5×10^2 cells were seeded in a 96-well plate and treated with a test compound. (0.64 nM - 2,000 nM, 6 dose points for HCT116 MTAP-/- cells for 5x and 6 days) cell growth was measured by SRB staining and absorbance was detected at 540 nm on a Synergy™ NEO microplate reader. The 50 % growth inhibition value (GI50) of the cell line was calculated using GraphPad Prism V9 software.

Row | Molecule | GI50 (Homo sapiens, HCT-116, 144 h) [nM] | GI50 [nM]
1 | COc1ccc(Sc2nc3c(=O)n(-c4ccccc4)c4cc(Cl)ccc4c3n2C)cc1 [Compound 18, 7-chloro-2-((4-methoxyphenyl)thio)-1-methyl-5-phenyl-1,5-dihydro-4H-imidazo[4,5-c]quinolin-4-one] | < 100 | –
2 | COc1ccc(Cc2nc3c(=O)n(-c4cccnc4C4CC4)c4cc(Cl)ccc4c3n2C)cc1 [Compound 24, 7-chloro-5-(2-cyclopropylpyridin-3-yl)-2-(4-methoxybenzyl)-1-methyl-1,5-dihydro-4H-imidazo[4,5-c]quinolin-4-one] | 100 to 500 | –
3 | COc1ccc(Cc2nc3c(=O)n(-c4cccnc4C)c4cc(C5CC5)ccc4c3n2C)cc1 [Compound 46, 7-Cyclopropyl-2-(4-methoxybenzyl)-1-methyl-5-(2-methylpyridin-3-yl)-1,5-dihydro-4H-imidazo[4,5-c]quinolin-4-one] | < 100 | –
4 | COc1ccc(Cc2nc3c(=O)n(-c4cccnc4C)c4cc(OC)ccc4c3n2C)cc1 [Compound 51, 7-methoxy-2-(4-methoxybenzyl)-1-methyl-5-(2-methylpyridin-3-yl)-1,5-dihydro-4H-imidazo[4,5-c]quinolin-4-one] | < 100 | –
5 | COc1ccc(Oc2nc3c(=O)n(-c4ccccc4)c4cc(Cl)ccc4c3n2C)cc1 [Compound 42, 7-chloro-2-(4-methoxyphenoxy)-1-methyl-5-phenyl-1,5-dihydro-4H-imidazo[4,5-c]quinolin-4-one] | > 1000 | –
6 | COc1ccc2c3c(nc(Cc4ccc(OC(F)F)cc4)n3C)c(=O)n(-c3cccnc3C)c2n1 [Compound 63, 2-(4-(difluoromethoxy)benzyl)-7-methoxy-1-methyl-5-(2-methylpyridin-3-yl)-1,5-dihydro-4H-imidazo[4,5-c][1,8]naphthyridin-4-one] | < 100 | –
7 | 7-chloro-2-(4-methoxyphenyl)-1-methyl-5-(o-tolyl)-1,5-dihydro-4H-imidazo[4,5-c]quinolin-4-one [Compound 10] | – | < 100
8 | COc1ccc(Cc2nc3c(=O)n(-c4cccnc4C)c4cc(O)ccc4c3n2C)cc1 [Compound 43, 7-Hydroxy-2-(4-methoxybenzyl)-1-methyl-5-(2-methylpyridin-3-yl)-1,5-dihydro-4H-imidazo[4,5-c]quinolin-4-one] | > 1000 | –
9 | CCOc1ncc2c3c(nc(Cc4ccc(OC)cc4)n3C)c(=O)n(-c3cccnc3C)c2n1 [Compound 62, 7-ethoxy-2-(4-methoxybenzyl)-1-methyl-5-(2-methylpyridin-3-yl)-1,5-dihydro-4H-imidazo[4',5':4,5]pyrido[2,3-d]pyrimidin-4-one] | > 1000 | –
10 | Cn1c(Cc2ccncc2)nc2c(=O)n(-c3ccccc3)c3cc(Cl)ccc3c21 [Compound 7, 7-chloro-1-methyl-5-phenyl-2-(pyridin-4-ylmethyl)-1,5-dihydro-4H-imidazo[4,5-c]quinolin-4-one] | > 1000 | –
11 | Cc1ncccc1-n1c(=O)c2nc(Cc3ccc(F)cc3)n(C)c2c2ccc(Cl)cc21 [Compound 28, 7-chloro-2-(4-fluorobenzyl)-1-methyl-5-(2-methylpyridin-3-yl)-1,5-dihydro-4H-imidazo[4,5-c]quinolin-4-one] | < 100 | –
12 | COc1ccc(Cc2nc3c(=O)n(-c4ccc(F)c(Cl)c4)c4cc(Cl)ccc4c3n2C)cc1 [Compound 17, 7-chloro-5-(3-chloro-4-fluorophenyl)-2-(4-methoxybenzyl)-1-methyl-1,5-dihydro-4H-imidazo[4,5-c]quinolin-4-one] | > 1000 | –
13 | COc1ccc(Cc2nc3c(=O)n(-c4cccnc4C)c4cc(C(F)(F)F)ccc4c3n2C)cc1 [Compound 27, 2-(4-methoxybenzyl)-1-methyl-5-(2-methylpyridin-3-yl)-7-(trifluoromethyl)-1,5-dihydro-4H-imidazo[4,5-c]quinolin-4-one] | < 100 | –
14 | C=Cc1ccc2c3c(nc(Cc4ccc(OC)cc4)n3C)c(=O)n(-c3cccnc3C)c2c1 [Compound 44, 2-(4-methoxybenzyl)-1-methyl-5-(2-methylpyridin-3-yl)-7-vinyl-1,5-dihydro-4H-imidazo[4,5-c]quinolin-4-one] | < 100 | –
15 | O=c1c2nc(Cc3ccccc3)[nH]c2c2ccc(Cl)cc2n1-c1ccccc1 [Compound 11, 2-benzyl-7-chloro-5-phenyl-1,5-dihydro-4H-imidazo[4,5-c]quinolin-4-one] | 500 to 1000 | –
16 | CCc1ccc2c3c(nc(Cc4ccc(OC(F)F)cc4)n3C)c(=O)n(-c3cccnc3C)c2c1 [Compound 54, 2-(4-(difluoromethoxy)benzyl)-7-ethyl-1-methyl-5-(2-methylpyridin-3-yl)-1,5-dihydro-4H-imidazo[4,5-c]quinolin-4-one] | < 100 | –
17 | COc1ccc2c3c(nc(Cc4ccc(OC(F)F)cc4)n3C)c(=O)n(-c3cccnc3C)c2c1 [Compound 55, 2-(4-(Difluoromethoxy)benzyl)-7-methoxy-1-methyl-5-(2-methylpyridin-3-yl)-1,5-dihydro-4H-imidazo[4,5-c]quinolin-4-one] | < 100 | –
18 | Cc1ncccc1-n1c(=O)c2nc(Sc3ccc(F)cc3)n(C)c2c2ccc(C(F)(F)F)nc21 [Compound 60, 2-((4-fluorophenyl)thio)-1-methyl-5-(2-methylpyridin-3-yl)-7-(trifluoromethyl)-1,5-dihydro-4H-imidazo[4,5-c][1,8]naphthyridin-4-one] | 100 to 500 | –
19 | COc1ccc(Cc2nc3c(=O)n(-c4ccccc4)c4cc(Cl)ccc4c3n2C)cc1 [Compound 2, 7-chloro-2-(4-methoxybenzyl)-1-methyl-5-phenyl-1,5-dihydro-4H-imidazo[4,5-c]quinolin-4-one] | < 100 | –
20 | CCc1ccc2c3c(nc(Cc4ccc(OC)cc4)n3C)c(=O)n(-c3cccnc3C)c2c1 [Compound 45, 7-Ethyl-2-(4-methoxybenzyl)-1-methyl-5-(2-methylpyridin-3-yl)-1,5-dihydro-4H-imidazo[4,5-c]quinolin-4-one] | < 100 | –
21 | COc1ccc([S+]([O-])c2nc3c(=O)n(-c4ccccc4)c4cc(Cl)ccc4c3n2C)cc1 (stereo not shown) [Compound 20, 7-chloro-2-((4-methoxyphenyl)sulfinyl)-1-methyl-5-phenyl-1,5-dihydro-4H-imidazo[4,5-c]quinolin-4-one] | 500 to 1000 | –
22 | COc1ccc(Sc2nc3c(=O)n(-c4cccnc4C)c4nc(C(F)(F)F)ccc4c3n2C)cc1 [Compound 59, 2-((4-methoxyphenyl)thio)-1-methyl-5-(2-methylpyridin-3-yl)-7-(trifluoromethyl)-1,5-dihydro-4H-imidazo[4,5-c][1,8]naphthyridin-4-one] | < 100 | –
23 | COc1ccc(Cc2nc3c(=O)n(-c4cccnc4C)c4cc(C(C)C)ccc4c3n2C)cc1 [Compound 48, 7-isopropyl-2-(4-methoxybenzyl)-1-methyl-5-(2-methylpyridin-3-yl)-1,5-dihydro-4H-imidazo[4,5-c]quinolin-4-one] | 100 to 500 | –
24 | Cc1ncccc1-n1c(=O)c2nc(Sc3ccc(F)c(F)c3)n(C)c2c2ccc(Cl)cc21 [Compound 37, 7-chloro-2-((3,4-difluorophenyl)thio)-1-methyl-5-(2-methylpyridin-3-yl)-1,5-dihydro-4H-imidazo[4,5-c]quinolin-4-one] | < 100 | –
25 | COc1ccc(Cc2nc3c(=O)n(-c4cccnc4C(F)(F)F)c4cc(Cl)ccc4c3n2C)cc1 [Compound 23, 7-chloro-2-(4-methoxybenzyl)-1-methyl-5-(2-(trifluoromethyl)pyridin-3-yl)-1,5-dihydro-4H-imidazo[4,5-c]quinolin-4-one] | 100 to 500 | –

From patent publication EP4582423A1, “NOVEL TRICYCLIC DERIVATIVE COMPOUND AND USES THEREOF” (Hanmi Pharm. Co., Ltd., priority 2022, dated 2024)
